Data taken from US11053216B2, “Compounds and methods of use” (Medivation Technologies LLC, priority 2014, dated 2021).

Assays:
[1] = Pharmacokinetics and bioavailability in male mice after a single dose; assay type: in vivo
[2] = Plasma and brain concentrations at 0.5 and 1 h; assay type: in vivo, mice
[3] = target: ALK3 (BMPR1A) (Homo sapiens (Human), UniProt P36894); assay: In vitro kinase assay (33P ATP, 10 μM ATP); assay type: biochemical; details: read-out: Inhibition of ALK3 (IC50 μM)
Sequence of ALK3 (BMPR1A) (P36894 24-532): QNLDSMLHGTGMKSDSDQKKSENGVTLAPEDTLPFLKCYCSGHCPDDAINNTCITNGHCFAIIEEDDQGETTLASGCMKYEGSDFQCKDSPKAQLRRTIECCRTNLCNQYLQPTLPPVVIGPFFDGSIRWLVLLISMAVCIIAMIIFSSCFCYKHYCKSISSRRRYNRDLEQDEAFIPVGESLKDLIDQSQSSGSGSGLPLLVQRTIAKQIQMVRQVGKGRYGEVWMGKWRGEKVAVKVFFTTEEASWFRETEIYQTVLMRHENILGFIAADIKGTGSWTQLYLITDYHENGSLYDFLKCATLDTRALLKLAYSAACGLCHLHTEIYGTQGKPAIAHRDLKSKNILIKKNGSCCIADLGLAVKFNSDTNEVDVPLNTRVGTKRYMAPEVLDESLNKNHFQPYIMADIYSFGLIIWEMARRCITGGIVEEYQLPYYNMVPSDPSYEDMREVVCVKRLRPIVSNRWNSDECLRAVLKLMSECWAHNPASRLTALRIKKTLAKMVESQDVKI

| Cmax ([1]; oral, 10 mg/kg) [µM] | Brain concentration ([2]; IV 2 mg/kg, 0.5 h) [µg/mL] | Plasma concentration ([2]; IV 2 mg/kg, 0.5 h) [µg/mL] | Brain concentration ([2]; IV 2 mg/kg, 1 h) [µg/mL] | Plasma concentration ([2]; IV 2 mg/kg, 1 h) [µg/mL] | Brain concentration ([2]; PO 10 mg/kg, 0.5 h) [µg/mL] | Plasma concentration ([2]; PO 10 mg/kg, 0.5 h) [µg/mL] | Brain concentration ([2]; PO 10 mg/kg, 1 h) [µg/mL] | Plasma concentration ([2]; PO 10 mg/kg, 1 h) [µg/mL] | SMILES | further results |
| --- | --- | --- | --- | --- | --- | --- | --- | --- | --- | --- |
| 3.48 | – | – | – | – | – | – | – | – | CCc1cnc(-c2cc(Cl)ccc2F)cc1Nc1ccncc1C(=O)NC[C@H](C)O (single isomer, unassigned) [11a] | – |
| – | – | – | – | – | – | – | – | – | CC(C)c1cnc(-c2cc(Cl)ccc2F)cc1Nc1ncncc1C(=O)NC[C@H](C)O (single isomer, unassigned) [12a] | Cmax ([1]; mouse, plasma, intravenous, 2 mg/kg): 7.15 µM |
| – | 0.0732 | 0.31 | 0.0824 | 0.366 | 0.202 | 1.57 | 0.114 | 0.905 | CC(C)c1cnc(-c2cc(Cl)ccc2F)cc1Nc1ccncc1C(=O)NC[C@H](C)O [2a, (S)-4-[[2-(5-chloro-2-fluoro-phenyl)-5-isopropyl-4-pyridyl]amino]-N-(2-hydroxypropyl)pyridine-3-carboxamide] | – |
| – | 0.173 | 0.432 | 0.168 | 0.365 | 0.305 | 1.28 | 0.406 | 1.25 | C=C(C)c1cnc(-c2cc(Cl)ccc2F)cc1Nc1ccncc1C(=O)NC[C@H](C)O [3a, (S)-4-(2-(5-chloro-2-fluorophenyl)-5-(prop-1-en-2-yl)pyridin-4-ylamino)-N-(2-hydroxypropyl)pyridine-5-carboxamide] | – |
| 3.42 | – | – | – | – | – | – | – | – | C[C@H](O)CNC(=O)c1cnccc1Nc1cc(-c2cc(Cl)ccc2F)ncc1N(C)C [16a, (S)-4-(2-(5-chloro-2-fluorophenyl)-5-(dimethylamino)pyridin-4-ylamino)-N-(2-hydroxypropyl)nicotinamide] | – |
| – | – | – | – | – | – | – | – | – | Fc1ccc(Cl)cc1-c1cc(Nc2ccnc3[nH]ccc23)c(C2CC2)cn1 [compound 32, 2-(5-chloro-2-fluorophenyl)-5-cyclopropyl-N-{1H-pyrrolo[2,3-b]pyridin-4-yl}pyridin-4-amine] | IC50 [3]: 333 µM |
